These results are taken from US20080108612A1, “Use of Purine Derivatives as HSP90 Protein Inhibitors” (AVENTIS PHARMA S.A., priority 2005, published 2008).

Counter-ions that a name gives are not always drawn. Like-named read-outs stand apart in the source and are kept apart here.

The target in data set [1] is Hsp82 (Saccharomyces cerevisiae, UniProt P02829). Briefly: Inhibition of the ATPase activity of Hsp82 in the enzymatic coupling system (pyruvate kinase / lactate dehydrogenase). The class given is biochemical. The text has this:
The formation of ADP due to the ATPase activity of Hsp82 was used to develop another method for evaluating the enzymatic activity of this enzyme by application of an enzymatic coupling system involving pyruvate kinase (PK) and lactate dehydrogenase (LDH). In this kinetic-type spectrophotometric method, the PK catalyzes the formation of ATP and of pyruvate from phosphoenol pyruvate (PEP) and from the ADP produced by Hsp82. The pyruvate formed, which is a substrate for LDH, is then converted to lactate in the presence of NADH. In this case, the decrease in NADH concentration, measured by the decrease in absorbance at the wavelength of 340 nm, is proportional to the concentration of ADP produced by Hsp82.
The products tested were incubated in a reaction volume of 100 μl of buffer composed of 100 mM Hepes-NaOH (pH 7.5), 5 mM MgCl2, 1 mM DTT, 150 mM KCl, 0.3 mM NADH, 2.5 mM PEP and 250 μM ATP. This mixture was preincubated at 37° C. for 30 min before adding 3.77 units of LDH and 3.77 units of PK. The reaction was initiated by addition of the product to be evaluated, in variable concentrations, and of Hsp82, at the concentration of 1 μM. Measurement of the enzymatic activity of Hsp82 was then carried out, continuously, in a microplate reader at 37° C., at the wavelength of 340 nm. The initial rate of the reaction was obtained by measuring the slope of the tangent at the origin of the curve recorded. The enzymatic activity was expressed in μM of ADP formed per minute. The effect of the various products tested was expressed as a percentage inhibition of the ATPase activity.
The inhibitory activities on the ATPase activity of Hsp82 obtained with the products of the invention in the enzymatic coupling system are given in the table below, according to the criteria below for inhibition of the ATPase activity of Hsp82: […]

[2] abbreviates: ATPase activity of Hsp82, PK/LDH enzymatic coupling system, 1 μM Hsp82, 250 μM ATP, 37° C., absorbance at 340 nm, read-out: IC50.

Hsp82, sequence (P02829 whole entry): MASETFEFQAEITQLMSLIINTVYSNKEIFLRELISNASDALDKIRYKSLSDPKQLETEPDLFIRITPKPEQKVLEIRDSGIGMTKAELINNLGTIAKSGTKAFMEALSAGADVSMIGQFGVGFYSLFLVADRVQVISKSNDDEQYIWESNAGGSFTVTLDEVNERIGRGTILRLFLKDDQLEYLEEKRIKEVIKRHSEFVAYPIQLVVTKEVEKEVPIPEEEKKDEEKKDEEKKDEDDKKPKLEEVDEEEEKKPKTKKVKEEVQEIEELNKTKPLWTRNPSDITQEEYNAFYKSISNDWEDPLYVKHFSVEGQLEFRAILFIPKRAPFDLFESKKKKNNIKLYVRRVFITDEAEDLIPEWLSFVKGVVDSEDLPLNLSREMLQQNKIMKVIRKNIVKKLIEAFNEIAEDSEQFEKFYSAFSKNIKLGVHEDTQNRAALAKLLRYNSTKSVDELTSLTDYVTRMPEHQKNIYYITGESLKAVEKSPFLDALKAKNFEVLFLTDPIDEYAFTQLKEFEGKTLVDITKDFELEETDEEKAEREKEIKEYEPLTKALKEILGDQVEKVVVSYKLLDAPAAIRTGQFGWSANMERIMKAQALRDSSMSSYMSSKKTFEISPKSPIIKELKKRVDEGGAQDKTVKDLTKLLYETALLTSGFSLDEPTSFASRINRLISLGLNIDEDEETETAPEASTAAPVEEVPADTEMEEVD

As for `Clc1nc(NCCN2CCOCC2)c2nc[nH]c2n1` [Example 4, 2-chloro-6-[2-(morpholin-4-yl)ethylamino]-1H-purine], the IC50 in data set [1] (setting [2]) was in the range of 10 to 100 µM.
For `CCOC(=O)CC1CCN(c2ncnc3[nH]cnc23)CC1` [Example 8, 6-[4-(ethyloxycarbonyl)methylpiperidin-1-yl]-1H-purine], in data set [1] (setting [2]), the IC50 was in the range of 10 to 100 µM.
`Cl.c1ccc(CN2CCN(c3ncnc4[nH]cnc34)CC2)cc1` [Example 1] yielded a melting point of 258 to 260 °C. In data set [1] (setting [2]), the IC50 lay within 1 to 10 µM.
Consider `CC(Nc1nc(Cl)nc2[nH]cnc12)c1ccccc1` (racemic) [Example 3, 2-chloro-6-(1(R,S)-phenylethyl)amino-1H-purine], for which the half-inhibitory concentration (IC50) in data set [1] lay in the range of 10 to 100 µM.
Turning to `Clc1nc(NCCNCc2ccccc2)c2nc[nH]c2n1` [Example 6], in data set [1] (setting [2]), the half-maximal inhibitory concentration (IC50) lay in the range of 10 to 100 µM.
On to `c1ccc(N2CCN(c3ncnc4[nH]cnc34)CC2)nc1` [Example 10, 6-[4-(pyridin-2-yl)piperazinyl]-1-H-purine monohydrochloride], for which, in data set [1] (setting [2]), the IC50 fell in the range of 1 to 10 µM.
On the same count and under the same terms, under `Clc1nc(OCc2ccccc2)c2nc[nH]c2n1` [Example 2, 2-chloro-6-phenylmethyloxy-1H-purine] stands 10 to 100 µM.
The same measure, in the same setting: under `c1csc(CNc2[nH]cnc3ncnc2-3)c1` [Example 5, 6-(thiophen-2-yl)methylamino-1H-purine] stands 10 to 100 µM; under `c1nc(N2CCCCC2)c2nc[nH]c2n1` [Example 9, 6-(piperidin-1-yl)-1H-purine], 1 to 10 µM.

As usually defined, the IC50 is the point on the concentration scale where inhibition reaches its midpoint. The melting point is the temperature of the solid-liquid transition.
